Laboratory results as given in patent publication US6667413B2, “Uracil compounds and use thereof” (Sumitomo Chemical Company, Limited, priority 1999, dated 2003).

Legend:
Format in all cases: in vivo
[1] = test system: Broadleaf signalgrass (Brachiaria platyphylla); experiment: Test Example 6: foliar treatment, herbicidal activity index; parameters: key: 0: no or little difference in the degree of germination or growth between the treated and the untreated tested plants at the time of examination; 10: the test plants died complete or their germination or growth was completely inhibited; conditions: foliar spray, 4 days after application, index 0 to 10
Description: (§1) A plastic pot (27 cm×19 cm×7 cm) was filled with soil and then seeded with Johnsongrass (Sorghum halepense), Giant foxtail (Setaria faberi), barnyardgrass (Echinochloa crus-galli), large crabgrass (Digitaria sanguinalis), Broadleaf signalgrass (Brachiaria platyphylla) and wild oat (Avena fatua). These test plants were grown in a greenhouse for 25 days. After then, each of the compounds 3-11, 4-22, B and C was formulated into an emulsifiable concentrate according to Formulation Example 2 and then diluted to the prescribed amount with water containing a spreading agent and the dilution was uniformly sprayed over the foliage of the test plants with a sprayer at a rate of 1000 liters per hectare. After the application, the test plants were grown in the greenhouse for 4 days, and the herbicidal activity was examined. (In the Table 9, the test plants are shown as follows. Johnsongrass: J, Giant foxtail: GF, Barnyardgrass: B Large crabgrass: LC, Broadleaf signalgrass: BC wild oat: W

[2] = test system: Giant foxtail (Setaria faberi); experiment: as above; parameters: key: 0: no or little difference in the degree of germination or growth between the treated and the untreated tested plants at the time of examination; 10: the test plants died complete or their germination or growth was completely inhibited; conditions: foliar spray, 4 days after application, index 0 to 10
Description: as §1

[3] = test system: Johnsongrass (Sorghum halepense); experiment: as above; parameters: key: 0: no or little difference in the degree of germination or growth between the treated and the untreated tested plants at the time of examination; 10: the test plants died complete or their germination or growth was completely inhibited; conditions: foliar spray, 4 days after application, index 0 to 10
Description: as §1

[4] = test system: barnyardgrass (Echinochloa crus-galli); experiment: as above; parameters: key: 0: no or little difference in the degree of germination or growth between the treated and the untreated tested plants at the time of examination; 10: the test plants died complete or their germination or growth was completely inhibited; conditions: foliar spray, 4 days after application, index 0 to 10
Description: as §1

[5] = test system: large crabgrass (Digitaria sanguinalis); experiment: as above; parameters: key: 0: no or little difference in the degree of germination or growth between the treated and the untreated tested plants at the time of examination; 10: the test plants died complete or their germination or growth was completely inhibited; conditions: foliar spray, 4 days after application, index 0 to 10
Description: as §1

wild oat (Avena fatua) = experiment: as above; parameters: key: 0: no or little difference in the degree of germination or growth between the treated and the untreated tested plants at the time of examination; 10: the test plants died complete or their germination or growth was completely inhibited; conditions: foliar spray, 4 days after application, index 0 to 10
Description: as §1

[6] = test system: Ivyleaf morningglory (Ipomoea hederacea); experiment: Test Example 1: foliar treatment, herbicidal activity; conditions: foliar spray, 125 g/ha, 7 days after application
Description: (§2) A cylindrical plastic pot having a diameter of 10 cm and a depth of 10 cm was filled with soil and then seeded with Ivyleaf morningglory (Ipomoea hederacea), velvetleaf (Abutilon theophrasti), barnyardgrass (Echinochloa crus-galli) and blackgrass (Alopecurus myosuroides). These test plants were grown in a greenhouse for 9 days. Then, each of compounds 1-1,2-1, 3-1,3-2, 3-11 and 3-12 was formulated into an emulsifiable concentrate according to Formulation Example 2 and then diluted to the prescribed amount with water containing a spreading agent and the dilution was uniformly sprayed over the foliage of the test plants with a sprayer at a rate of 1000 liters per hectare After the application, the test plants were grown in the greenhouse for 7 days, and the herbicidal activity of the applied composition was determined.

[7] = test system: barnyardgrass (Echinochloa crus-galli); experiment: as above; conditions: foliar spray, 125 g/ha, 7 days after application
Description: as §2

[8] = test system: blackgrass (Alopecurus myosuroides); experiment: as above; conditions: foliar spray, 125 g/ha, 7 days after application
Description: as §2

[9] = test system: velvetleaf (Abutilon theophrasti); experiment: as above; conditions: foliar spray, 125 g/ha, 7 days after application
Description: as §2

[10] = test system: Ivyleaf morningglory (Ipomoea hederacea); experiment: Test Example 4: soil surface treatment, herbicidal activity; conditions: sprayed over the surface of the soil, 2000 g/ha, 7 days after application
Description: (§3) A cylindrical plastic pot having a diameter of 10 cm and a depth of 10 cm was filled with soil and then seeded with Ivyleaf morningglory (Ipomoea hederacea), velvetleaf (Abutilon theophrasti), barnyardgrass (Echinochloa crus-galli) and blackgrass (Alopecurus myosuroides). Then, each of the compounds 3-2,3-11, 3-12, 3-16, 3-20 and 3-198 was formulated into an emulsifiable concentrate according to Formulation Example 2 and then diluted to the prescribed amount with water, and the dilution was uniformly sprayed over the surface of the soil with a sprayer at a rate of 1000 liters per hectare. After the application, the test plants were grown in the greenhouse for 7 days, and the herbicidal activity of the applied composition was examined.

[11] = test system: barnyardgrass (Echinochloa crus-galli); experiment: as above; conditions: sprayed over the surface of the soil, 2000 g/ha, 7 days after application
Description: as §3

[12] = test system: blackgrass (Alopecurus myosuroides); experiment: as above; conditions: sprayed over the surface of the soil, 2000 g/ha, 7 days after application
Description: as §3

[13] = test system: velvetleaf (Abutilon theophrasti); experiment: as above; conditions: sprayed over the surface of the soil, 2000 g/ha, 7 days after application
Description: as §3

SMILES	Herbicidal activity BC ([1]; 0.33 g/ha)	Herbicidal activity BC ([1]; 1 g/ha)	Herbicidal activity BC ([1]; 3.3 g/ha)	Herbicidal activity GF ([2]; 0.33 g/ha)	Herbicidal activity GF ([2]; 1 g/ha)	Herbicidal activity GF ([2]; 3.3 g/ha)	Herbicidal activity J ([3]; 0.33 g/ha)	Herbicidal activity J ([3]; 1 g/ha)	Herbicidal activity J ([3]; 3.3 g/ha)	Herbicidal activity B ([4]; 0.33 g/ha)	Herbicidal activity B ([4]; 1 g/ha)	Herbicidal activity B ([4]; 3.3 g/ha)	Herbicidal activity LC ([5]; 0.33 g/ha)	Herbicidal activity LC ([5]; 1 g/ha)	Herbicidal activity LC ([5]; 3.3 g/ha)	Herbicidal activity W (wild oat (Avena fatua); 0.33 g/ha)	Herbicidal activity W (wild oat (Avena fatua); 1 g/ha)	Herbicidal activity W (wild oat (Avena fatua); 3.3 g/ha)	growth of Ivyleaf morningglory [6]	growth of barnyardgrass [7]	also measured
COc1ccccc1Oc1cc(-n2c(=O)cc(C(F)(F)F)n(C)c2=O)c(F)cc1C#N [B, reference compound]	2	6	8	3	5	7	2	7	7	2	6	7	3	7	8	2	5	7			
COC(=O)c1ccccc1Oc1cc(-n2c(=O)cc(C(F)(F)F)n(C)c2=O)c(F)cc1C#N [C, reference compound]	2	3	6	1	3	4	2	4	6	1	4	6	2	3	5	1	3	5			
CCOC(=O)C(C)Oc1ccccc1Oc1cc(-n2c(=O)cc(C(F)(F)F)n(C)c2=O)c(F)cc1Cl (stereo not drawn) [Compound 3-2, Ethyl 2-[2-{2-chloro-4-fluoro-5-[3-methyl-2,6-dioxo-4-(trifluoromethyl)-1,2,3,6-tetrahydropyrimidin-1-yl]phenoxy}phenoxy]propionate]																			completely controlled	completely controlled	growth of blackgrass [8]: completely controlled; growth of velvetleaf [9]: completely controlled; emergence of Ivyleaf morningglory [10]: completely controlled; emergence of barnyardgrass [11]: completely controlled; emergence of blackgrass [12]: completely controlled; emergence of velvetleaf [13]: completely controlled
COC(=O)COc1ccccc1Oc1cc(-n2c(=O)cc(C(F)(F)F)n(C)c2=O)c(F)cc1Cl [Compound 3-11, Methyl [2-{2-chloro-4-fluoro-5-[3-methyl-2,6-dioxo-4-(trifluoromethyl)-1,2,3,6-tetrahydropyrimidin-1-yl]phenoxy}phenoxy]acetate]	8	9	10	8	9	9	8	9	10	7	8	10	8	9	10	8	10	10	completely controlled	completely controlled	growth of blackgrass [8]: completely controlled; growth of velvetleaf [9]: completely controlled; emergence of Ivyleaf morningglory [10]: completely controlled; emergence of barnyardgrass [11]: completely controlled; emergence of blackgrass [12]: completely controlled; emergence of velvetleaf [13]: completely controlled
CCOC(=O)COc1ccccc1Oc1cc(-n2c(=O)cc(C(F)(F)F)n(C)c2=O)c(F)cc1Cl [Compound 3-12, Ethyl [2-{2-chloro-4-fluoro-5-[3-methyl-2,6-dioxo-4-(trifluoromethyl)-1,2,3,6-tetrahydropyrimidin-1-yl]phenoxy}phenoxy]acetate]																			completely controlled	completely controlled	growth of blackgrass [8]: completely controlled; growth of velvetleaf [9]: completely controlled; emergence of Ivyleaf morningglory [10]: completely controlled; emergence of barnyardgrass [11]: completely controlled; emergence of blackgrass [12]: completely controlled; emergence of velvetleaf [13]: completely controlled
COC(=O)COc1ccccc1Oc1cc(-n2c(=O)cc(C(F)(F)F)n(C)c2=O)c(F)cc1C#N [Compound 4-22]	8	8	9	7	8	10	8	8	9	8	9	9	9	9	9	8	9	10			
